Common to all, as to assay type: functional
The nature of test [1]: Cytotoxicity against human LOXIMVI cells assessed as cell growth at 0.5 uM after 48 hrs by SRB assay. Conditions: LOX IMVI, read-out: Activity.
Test [2] can be described thus: Cytotoxicity against human HCT15 cells assessed as cell growth at 5 nM after 48 hrs by SRB assay. The following applies: HCT-15, 48 h, read-out: Activity.
A short description of test [3]: Cytotoxicity against human SF268 cells assessed as cell growth at 0.5 uM after 48 hrs by SRB assay. Conditions: SF-268, 48 h, read-out: Activity.
Test [4] can be described thus: Cytotoxicity against human HOP92 cells assessed as cell growth at 50 nM after 48 hrs by SRB assay. The following applies: HOP-92, 48 h, read-out: Activity.
A short description of test [5]: Cytotoxicity against human Caki1 cells assessed as cell growth at 0.5 uM after 48 hrs by SRB assay. The following applies: CAKI-1, 48 h, read-out: Activity.
The subject of test [6] is U-251. Nature of the test: Cytotoxicity against human U251 cells assessed as cell growth at 5 nM after 48 hrs by SRB assay. Conditions: U-251, 48 h, read-out: Activity.
Test [7] concerns SR. Nature of the test: Cytotoxicity against human SR cells assessed as cell growth at 50 nM after 48 hrs by SRB assay. The following applies: read-out: Activity.
Test [8] deals with U-251. Nature of the test: Cytotoxicity against human U251 cells assessed as cell growth at 0.5 uM after 48 hrs by SRB assay. Conditions: U-251, 48 h, read-out: Activity.
The nature of test [9]: Cytotoxicity against human SNB19 cells assessed as cell growth at 0.5 uM after 48 hrs by SRB assay. Conditions: SNB-19, 48 h, read-out: Activity.
Test [10] concerns M14. The experiment in a line: Cytotoxicity against human M14 cells assessed as cell growth at 0.5 uM after 48 hrs by SRB assay. The following applies: M14, 48 h, read-out: Activity.
Test [11] relates to A498. The experiment in a line: Cytotoxicity against human A498 cells assessed as cell growth at 50 uM after 48 hrs by SRB assay. The following applies: A498, 48 h, read-out: Activity.
Test [12] in a line: Cytotoxicity against human HCC2998 cells assessed as cell growth at 5 nM after 48 hrs by SRB assay. The following applies: HCC 2998, 48 h, read-out: Activity.
Test [13] is described as follows: Cytotoxicity against human MOLT4 cells assessed as cell growth at 5 uM after 48 hrs by SRB assay. Conditions: MOLT-4, 48 h, read-out: Activity.
Test [14] in a line: Cytotoxicity against human DU145 cells assessed as cell growth at 50 uM after 48 hrs by SRB assay. The following applies: DU-145, 48 h, read-out: Activity.
Test [15] is described as follows: Cytotoxicity against human HOP62 cells assessed as cell growth at 5 nM after 48 hrs by SRB assay. Conditions: HOP-62, 48 h, read-out: Activity.
Test [16] concerns MDA-MB-231. Nature of the test: Cytotoxicity against human MDA-MB-231 cells assessed as cell growth at 5 uM after 48 hrs by SRB assay. The following applies: MDA-MB-231, 48 h, read-out: Activity.
Test [17] has as its system HT-29. The experiment in a line: Cytotoxicity against human HT-29 cells assessed as cell growth at 5 uM after 48 hrs by SRB assay. Conditions: HT-29, 48 h, read-out: Activity.
In test [18] the test system is CCRF-CEM. The experiment in a line: Cytotoxicity against human CCRF-CEM cells assessed as cell growth at 0.5 uM after 48 hrs by SRB assay. The following applies: read-out: Activity.
A short description of test [19]: Cytotoxicity against human HL-60(TB) cells assessed as cell growth at 50 nM after 48 hrs by SRB assay. The following applies: HL-60, 48 h, read-out: Activity.
The nature of test [20]: Cytotoxicity against human SNB19 cells assessed as cell growth at 5 uM after 48 hrs by SRB assay. The following applies: SNB-19, 48 h, read-out: Activity.
Test [21] is described as follows: Cytotoxicity against human HCC2998 cells assessed as cell growth at 0.5 uM after 48 hrs by SRB assay. Conditions: HCC 2998, 48 h, read-out: Activity.
In test [22] the test system is HT-29. Nature of the test: Cytotoxicity against human HT-29 cells assessed as cell growth at 50 uM after 48 hrs by SRB assay. Conditions: HT-29, 48 h, read-out: Activity.
Test [23] relates to 786-0. Nature of the test: Cytotoxicity against human 786-0 cells assessed as cell growth at 10^-7 M after 48 hrs by SRB assay. The following applies: 786-0, 48 h, read-out: Activity.
In test [24] the test system is EKVX. The experiment in a line: Cytotoxicity against human EKVX cells assessed as cell growth at 10^-8 M after 48 hrs by SRB assay. Conditions: read-out: Activity.
Test [25] is described as follows: Cytotoxicity against human COLO205 cells assessed as cell growth at 10^-4 M after 48 hrs by SRB assay. Conditions: COLO 205, 48 h, read-out: Activity.
Test [26] can be described thus: Cytotoxicity against human DU145 cells assessed as cell growth at 10^-6 M after 48 hrs by SRB assay. Conditions: DU-145, 48 h, read-out: Activity.
For test [27], the system named is SK-MEL-28. Nature of the test: Cytotoxicity against human SK-MEL-28 cells assessed as cell growth at 10^-4 M after 48 hrs by SRB assay. Conditions: SK-MEL-28, 48 h, read-out: Activity.
The test system of test [28] is T47D. The experiment in a line: Cytotoxicity against human T47D cells assessed as cell growth at 10^-4 M after 48 hrs by SRB assay. The following applies: read-out: Activity.
The nature of test [29]: Cytotoxicity against human UACC62 cells assessed as cell growth at 10^-7 M after 48 hrs by SRB assay. The following applies: UACC-62, 48 h, read-out: Activity.
A short description of test [30]: Cytotoxicity against human Caki1 cells assessed as cell growth at 10^-4 M after 48 hrs by SRB assay. The following applies: CAKI-1, 48 h, read-out: Activity.
Test [31] deals with ACHN. Nature of the test: Cytotoxicity against human ACHN cells assessed as cell growth at 10^-4 M after 48 hrs by SRB assay. The following applies: read-out: Activity.
For test [32], the system named is NCI-H522. Nature of the test: Cytotoxicity against human NCI-H522 cells assessed as cell growth at 10^-5 M after 48 hrs by SRB assay. The following applies: NCI-H522, 48 h, read-out: Activity.
The test system of test [33] is M14. The experiment in a line: Cytotoxicity against human M14 cells assessed as cell growth at 10^-8 M after 48 hrs by SRB assay. Conditions: M14, 48 h, read-out: Activity.
A short description of test [34]: Cytotoxicity against human NCI-ADR-RES cells assessed as cell growth at 10^-8 M after 48 hrs by SRB assay. Conditions: read-out: Activity.
Test [35] in a line: Cytotoxicity against human LOXIMVI cells assessed as cell growth at 10^-8 M after 48 hrs by SRB assay. Conditions: LOX IMVI, read-out: Activity.
Test [36] can be described thus: Cytotoxicity against human UACC257 cells assessed as cell growth at 10^-5 M after 48 hrs by SRB assay. Conditions: UACC-257, 48 h, read-out: Activity.
Test [37] in a line: Cytotoxicity against human SKOV3 cells assessed as cell growth at 10^-8 M after 48 hrs by SRB assay. The following applies: SK-OV-3, 48 h, read-out: Activity.
Test [38] deals with MDA-MB-468. The experiment in a line: Cytotoxicity against human MDA-MB-468 cells assessed as cell growth at 10^-5 M after 48 hrs by SRB assay. The following applies: MDA-MB-468, 48 h, read-out: Activity.
Test [39] concerns HT-29. The experiment in a line: Cytotoxicity against human HT-29 cells assessed as cell growth at 10^-7 M after 48 hrs by SRB assay. Conditions: HT-29, 48 h, read-out: Activity.
Test [40] can be described thus: Cytotoxicity against human SF268 cells assessed as cell growth at 10^-8 M after 48 hrs by SRB assay. The following applies: SF-268, 48 h, read-out: Activity.
The test system of test [41] is NCI-H322M. The experiment in a line: Cytotoxicity against human NCI-H322M cells assessed as cell growth at 10^-6 M after 48 hrs by SRB assay. The following applies: read-out: Activity.
The nature of test [42]: Cytotoxicity against human DU145 cells assessed as cell growth at 10^-8 M after 48 hrs by SRB assay. Conditions: DU-145, 48 h, read-out: Activity.

Take `CCCCCCCCCC(=O)Oc1ccc(/C(=C(/C)c2ccccc2)c2ccc(OCCN3CCCC3)cc2)cc1`: the growth at 0.5 µM amounted to 62% in test [1]; 73% in test [3]; 75% in [5]; 67% in [8]; 87% in [9]; 42% in test [10]. In addition, the growth at 0.5 µM in [18] is 76%; in test [21], 88%. Moreover, the growth at 0.005 µM came out at 98% in test [2], 98% in test [6], 98% in [12] and 103% in [15]. For the same molecule, the growth at 0.05 µM in test [4] was determined as 83%; in test [7], 87%; in test [19] it was 98%. The growth at 50 µM is -84% in test [11], -99% in [14] and -89% in test [22]. In addition, the growth at 5 µM in test [13] is 82%; in [16], 102%; in test [17], 58%; in [20], 94%.

In the case of `C/C(=C(/c1ccc(O)cc1)c1ccc(OCCN2CCCC2)cc1)c1ccccc1`, the results for the growth at 0.1 µM in test [23], in [29] and in [39] were 99%, 101% and 97%, respectively. For the same molecule, the growth at 0.01 µM in test [24] stood at 91%; in test [33] it was 92%; in test [34], 99%; in test [35], 98%; in test [37], 88%; in test [40], 98%. Besides, the growth at 0.01 µM in [42] worked out at 98%. Also, the growth at 100 µM in [25] is -82%; in [27], -93%; in test [28], -67%; in test [30] it was -100%; in [31] it was -91%. The growth at 1 µM came to 94% in test [26] and 90% in test [41]. Besides, the figures for the growth at 10 µM in [32], in [36] and in test [38] were -38%, -71% and -45%, respectively.
